Consider 1 compound from patent US20050148534A1, “Small molecule compositions and methods for increasing drug efficiency using compositions thereof” (priority 2003, published 2005).

The target of assay [1] is T1, Human thymidine kinase 1 (TK1) (Homo sapiens, UniProt P04183).
T1 construct: His tag (from pET28b(+)) (N); made in house; host or cells: E. coli BL21-codon plus
T1 sequence (P04183 1-234): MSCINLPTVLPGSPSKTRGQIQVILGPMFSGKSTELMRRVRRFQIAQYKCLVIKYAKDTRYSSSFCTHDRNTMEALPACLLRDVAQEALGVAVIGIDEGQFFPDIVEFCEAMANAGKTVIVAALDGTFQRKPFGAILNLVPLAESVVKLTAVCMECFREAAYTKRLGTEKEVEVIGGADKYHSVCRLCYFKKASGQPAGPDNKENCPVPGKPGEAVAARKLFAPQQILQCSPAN
Put plainly: Thymidine kinase coupled (kinetic) ATP depletion assay. In kind it is biochemical. Particulars: initial velocity relative to thymidine; 100 μM conjugate. The procedure:
Thymidine kinase, viral thymidine kinase, TK-1 deoxycytidine kinase, and deoxyguanosine kinase activities are determined by subjecting a first end of a linker used in synthesizing linker-substrate constructs to a first test. The first test may involve observing ADP formation, an obligatory co-product of phospho group transfer from ATP which is catalyzed by the kinase to the C5′ hydroxyl group or its equivalent in the nucleoside or nucleoside analog. Formation of ADP is followed by a coupled enzyme assay well known in the art. ADP, formed from kinase phosphorylation, is used by pyruvate kinase to generate pyruvate from phosphoenolpyruvate which in turn is converted to lactate by lactate dehydrogenase. The lactate results in the consumption of NADH which is followed spectrophotometrically. The rate of nucleoside phosphorylation is then directly related to the rate of decrease in the observed NADH signal.
TK1 was amplified using PCR with forward primer 5′-[…]-3′ and reverse primer 5′-[…]-3′. The PCR product was digested with Nde I and Hind III. An N-terminal His-tagged TK1 construct, TK1/pET28b(+), was generated by subcloning TK1 into the Nde I and Hind III sites of prokaryotic expression vector pET28b (+) (Novagen, San Diego, Calif.). TK1 was expressed from TK1/pET28b(+) using E. coli strain BL21-codon plus (Stratagene, San Diego, Calif.) and purified by Ni column chromatography.
A coupled (kinetic) ATP depletion assay was developed to measure thymidine kinase activity. The reaction contained 100 mM Tris HCl, pH 7.5, 20 mM MgCl2, 100 mM KCl, 0.4 mM PEP, 0.2 mM NADH, Pyruvate Kinase (0.7 units)/Lactate Dehydrogenase (1.0 unit) (Sigma #PO294), 2.5-10 μg Thymidine Kinase, 100 μM thymidine or thymidine-drug conjugate in a volume of 75 μl. ATP (5 mM in 25 μl H2O) was added to initiate the reaction and the velocity of ATP depletion was monitored at 340 nm continuously for 15 minutes.

Assay [2] concerns breast carcinoma, colon carcinoma and leukemia. As to the kind of experiment: Cytotoxicity of drug-thymidine conjugates (Example 22). It is filed as cell-based.

Each structure is given as a SMILES string.

As to `CC(=O)O[C@H]1C(=O)[C@@]2(C)[C@H]([C@H](OC(=O)c3ccccc3)[C@]3(O)C[C@H](OC(=O)[C@H](O)[C@@H](NC(=O)c4ccccc4)c4ccccc4)C(C)=C1C3(C)C)[C@]1(OC(C)=O)CO[C@@H]1C[C@@H]2O` [Paclitaxel], in assay [1], the “Ave. TK1 Kinase Act.” value was “A (A<20)”. In addition, the EC50 (as a rule, the concentration that produces a half-maximal response) in assay [2] is 5 to 8 nM.
